Test results as given in US20250017964A1, “ENGINEERING OR INDUCING PDGF AND/OR PDGFR SIGNALING TO ENHANCE NK CELL THERAPY” (City of Hope, priority 2021, published 2025).

Key:
PDGF-D = PDGF-D expression in NK cells (qPCR, flow cytometry, immunoblotting, ELISA); type: cell-based, human
Procedure: FIGS. 5A-5J. IL-15 induces PDGF-D expression in an autocrine manner. (A) mRNA levels of PDGFA, PDGFB, PDGFC, and PDGF-D in T cells, B cells, and NK cells were analyzed using the BioGPS online tool. (B) mRNA levels of PDGFA, PDGFB, PDGFC, and PDGF-D in T cells, B cells, and NK cells were examined by qPCR (n=10). (C) Primary NK cells were treated with IL-15 (10 ng/ml) for the indicated times. mRNA levels of PDGF-D were examined by qPCR (n=3). (D-E) Representative dot plots and percentages of PDGF-D levels in NK cells after IL-15 (50 ng/ml) treatment for 24 h. Resting NK cells were used as control (n=5). […] (I-J) Binding of p65 to the PDGF-D promoter in IL-15 treated (I) or resting NK cells (J) as determined by ChIP-qPCR (n=3). Data represent three independent experiments. Data shown are means±SD. […]
Cells were stained with the indicated cell-surface markers and/or fixed/permeabilized using a Fixation/Permeabilization Kit (eBioscience). […] Data were analyzed using NovoExpress software (Agilent Technologies).
(§1) RNA was isolated using an RNeasy Mini Kit (QIAGEN) and reversely transcribed to cDNA with a PrimeScript RT Reagent Kit with gDNA Eraser (Takara Bio) according to the manufacturer's protocol. mRNA expression levels were analyzed using SYBR Green qPCR Master Mix and a QuantStudio 12K Flex Real-Time PCR System (both from Thermo Fisher Scientific). […]

PDGFRβ = PDGFRβ localisation: immunofluorescence and immunoblot of cell fractions; type: cell-based, human
Procedure: FIGS. 1A-1J. IL-15 induces PDGFRβ expression in human NK cells. (A-C) NK cells were purified from PBMCs of healthy donors and stimulated with IL-15 (10 ng/ml) for 24 h. Expression levels of PDGFRα and PDGFRβ were examined by flow cytometry. Data shown are representative dot plots (A), percentages (B), and mean fluorescence intensity (MFI) of PDGFRβ in NK cells (C) (n=20). Resting NK cells were used as the control. (D-E) NK cells were treated with various doses of IL-15 for 24 h (D) or with the same dose of IL-15 (10 ng/ml) at the indicated times (E). Data shown are the percentages of PDGFRβ^+ NK cells among total NK cells (n=5). (F) Immunofluorescence analysis of PDGFRβ expression on resting and IL-15-treated NK cells. Sodium-potassium ATPase was used as a cell membrane marker. Bar=20 μm. (G) Expression of PDGFRβ in the cytoplasmic, nuclear, and cell membrane fractions of NK cells determined by immunoblotting. […] Expression levels of PDGFRβ were then determined by flow cytometry. […]
as §1

**Q.** For “IL-15: recombinant human IL-15 (200-15); recombinant murine IL-15 in the mouse NK cell test”, which “mRNA levels of PDGF-D in NK cells” value (PDGF-D; IL-15 10 ng/ml, qPCR) is on record?
**A.** significantly increased

**Q.** And the “protein levels of PDGF-D in NK cells” value (PDGF-D; IL-15 50 ng/ml 24 h, flow cytometry, immunoblotting, ELISA)?
**A.** significantly increased

**Q.** What about the “PDGFRβ localisation by immunofluorescence” value (PDGFRβ; IL-15-treated versus resting NK cells) of the same substance?
**A.** expressed on the membrane

**Q.** What about the “PDGFRβ in cytoplasmic, nuclear and cell membrane fractions by immunoblotting” value (PDGFRβ; after stimulation by IL-15) of the same substance?
**A.** enriched in the cytoplasm and translocated to the cell membrane
